# Measured values taken from patent US7932262B2 (Novartis AG, priority 2006, dated 2011).
# Where two headings read alike, the source gives them in different places.
# Legend:
# [1] = target: T1, PDK1 kinase (Homo sapiens, UniProt O15530); assay: PDK1 Kinase Alpha Screen Assay; assay type: biochemical; conditions: read-out: PDK1 IC50
# T1 sequence (O15530 1-556): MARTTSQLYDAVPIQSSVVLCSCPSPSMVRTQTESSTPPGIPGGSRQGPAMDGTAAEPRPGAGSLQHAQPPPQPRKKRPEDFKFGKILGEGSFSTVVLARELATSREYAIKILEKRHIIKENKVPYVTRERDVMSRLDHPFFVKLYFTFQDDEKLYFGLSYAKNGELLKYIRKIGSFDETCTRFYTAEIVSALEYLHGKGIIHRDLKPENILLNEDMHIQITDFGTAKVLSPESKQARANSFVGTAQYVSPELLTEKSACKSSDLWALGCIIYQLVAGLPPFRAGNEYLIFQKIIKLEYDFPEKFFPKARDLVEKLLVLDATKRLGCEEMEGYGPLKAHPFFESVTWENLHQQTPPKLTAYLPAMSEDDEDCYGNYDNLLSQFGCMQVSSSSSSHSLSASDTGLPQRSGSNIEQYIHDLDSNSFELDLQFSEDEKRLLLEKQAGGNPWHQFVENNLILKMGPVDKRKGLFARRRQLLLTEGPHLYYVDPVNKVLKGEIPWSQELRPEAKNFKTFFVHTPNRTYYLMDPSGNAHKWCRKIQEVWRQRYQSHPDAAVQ
# How it was run: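 Biotinylated PDK1-4 peptide (50 nM) phosphorylated by PDK1 with 10 uM ATP in pH 7.5 Tris/MgCl2/DTT buffer, 2.5% DMSO, for 3-18 hours. EDTA stop, then AlphaScreen detection with phospho-(Ser/Thr) PKA substrate antibody and protein A/streptavidin beads after overnight room-temperature development.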
# [2] = system: PC3MM cells; assay: Cell Proliferation Assay (Cell Titer Glo), PC3MM; assay type: cell-based; conditions: Cell Proliferation Assay, PC3MM; read-out: CPEC50 PC3MM
# Procedure: IV. Cell Proliferation Assay Protocol:
# A2780, PC-3, or PC3MM cells were seeded at 1000 cells/well in 100 μL/well (10.000 cells/mL) growth media in 96-well plates. Cells were allowed to adhere to the bottom of plates for 3-5 hours in a 37° C. 5% CO2 incubator. Compounds were dissolved in DMSO and then transferred to the cell plates. The cells were incubated with the compounds for 3 days in a 37° C. 5% CO2 incubator. The growth medium containing the compounds was then removed from the cells and fresh medium was added, followed by 100 μL of Cell Titer Glo assay reagent (Promega). This mixture was shaken for 1 minute and then incubated without shaking for 10 minutes. Activity determinations for the compounds were made by detection on a Trilux Instrument.
# [3] = system: A2780 cells; assay: Cell Proliferation Assay (Cell Titer Glo), A2780; assay type: cell-based; conditions: Homo sapiens, A2780 cells, read-out: CPEC50 A2780
# How it was run: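 Cells seeded at 1000/well, allowed to adhere 3-5 h, then exposed to DMSO-dissolved compounds for 3 days at 37° C., 5% CO2. Medium replaced before Cell Titer Glo addition; luminescence read after 10 min.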
# [4] = system: PC-3 cells; assay: Cell Proliferation Assay (Cell Titer Glo), PC-3 cell line; assay type: cell-based; conditions: Homo sapiens, read-out: CPEC50 PC3
# How it was run: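 PC-3 cells, 1000 cells/well, left to adhere 3-5 h, then exposed for 3 days at 37° C to compounds as 1:3 serial dilutions from 500× DMSO stocks diluted in growth medium. Medium then replaced with fresh medium and viability read by Cell Titer Glo luminescence.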
# [5] = PC-3, cell proliferation, PC3 cells
Compound,IC50 ([1]; PDK1 Kinase Alpha Screen Assay),EC50 [2],EC50 ([3]; cell proliferation),"EC50 [4, 5]",EC50 [3],IC50 [1],"EC50 ([4]; PC-3, PC3 cells)"
"Cn1cc(-c2ccc3cnc(Nc4ccc(S(N)(=O)=O)cc4)nc3c2-c2ccccc2)cn1 [Compound 904, 4-(7-(1-methyl-1H-pyrazol-4-yl)-8-phenylquinazolin-2-ylamino)benzenesulfonamide]",< 5 µM,–,< 5 µM,< 5 µM,–,–,–
"Cn1cc(-c2ccc3cnc(Nc4ccc(S(N)(=O)=O)cc4)nc3c2-c2ccc(N)nc2)cn1 [Compound 905, 4-(8-(6-aminopyridin-3-yl)-7-(1-methyl-1H-pyrazol-4-yl)quinazolin-2-ylamino)benzenesulfonamide]",< 5 µM,–,< 5 µM,< 5 µM,–,–,–
"CN1CCN(C(=O)c2ccc(-c3c(-c4cnn(C)c4)ccc4cnc(Nc5ccc(S(N)(=O)=O)cc5)nc34)cc2)CC1 [Compound 906, 4-(7-(1-methyl-1H-pyrazol-4-yl)-8-(4-(4-methylpiperazine-1-carbonyl)phenyl)quinazolin-2-ylamino)benzenesulfonamide]",< 5 µM,–,< 5 µM,< 5 µM,–,–,–
"Cn1cc(-c2ccc3cnc(Nc4ccc(S(N)(=O)=O)cc4)nc3c2-c2ccc(F)nc2)cn1 [Compound 907, 4-(8-(6-fluoropyridin-3-yl)-7-(1-methyl-1H-pyrazol-4-yl)quinazolin-2-ylamino)benzenesulfonamide]",< 5 µM,–,< 5 µM,< 5 µM,–,–,–
"COCCNc1ccc(-c2c(-c3cnn(C)c3)ccc3cnc(Nc4ccc(S(N)(=O)=O)cc4)nc23)cn1 [Compound 908, 4-(8-(6-(2-methoxyethylamino)pyridin-3-yl)-7-(1-methyl-1H-pyrazol-4-yl)quinazolin-2-ylamino)benzenesulfonamide]",< 5 µM,–,< 5 µM,< 5 µM,–,–,–
"Cn1cc(-c2ccc3cnc(Nc4ccc(S(N)(=O)=O)cc4)nc3c2-c2ccc(N3CCOCC3)nc2)cn1 [Compound 909, 4-(7-(1-methyl-1H-pyrazol-4-yl)-8-(6-morpholinopyridin-3-yl)quinazolin-2-ylamino)benzenesulfonamide]",< 5 µM,–,< 5 µM,< 5 µM,–,–,–
"CN1CCN(c2ccc(-c3c(-c4cnn(C)c4)ccc4cnc(Nc5ccc(S(N)(=O)=O)cc5)nc34)cn2)CC1 [Compound 910, 4-(7-(1-methyl-1H-pyrazol-4-yl)-8-(6-(4-methylpiperazin-1-yl)pyridin-3-yl)quinazolin-2-ylamino)benzenesulfonamide]",< 5 µM,–,< 5 µM,< 5 µM,–,–,–
"NS(=O)(=O)c1ccc(Nc2ncc3ccc(-c4ccccc4)c(OC4CCNCC4)c3n2)cc1 [Compound 911, 4-(7-phenyl-8-(piperidin-4-yloxy)quinazolin-2-ylamino)benzenesulfonamide]",< 5 µM,–,< 5 µM,< 5 µM,–,–,–
NS(=O)(=O)c1ccc(Nc2ncc3cc(F)cc(-c4ccc(N5CCS(=O)(=O)CC5)nc4)c3n2)cc1 [Compound 913],< 5 µM,–,< 5 µM,< 5 µM,–,–,–
"CC(C)Nc1ccc(-c2cc(F)cc3cnc(Nc4ccc(S(N)(=O)=O)cc4)nc23)cn1 [Compound 914, 4-(6-fluoro-8-(6-(isopropylamino)pyridin-3-yl)quinazolin-2-ylamino)benzenesulfonamide]",< 5 µM,–,< 5 µM,< 5 µM,–,–,–
"CN1CCN(C(=O)c2ccc(-c3cc(F)cc4cnc(Nc5ccc(S(N)(=O)=O)cc5)nc34)cc2)CC1 [Compound 915, 4-(6-fluoro-8-(4-(4-methylpiperazine-1-carbonyl)phenyl)quinazolin-2-ylamino)benzenesulfonamide]",–,–,–,–,< 5 µM,< 5 µM,< 5 µM
"CC(C)N1CCN(Cc2cccc3cnc(Nc4ccc(S(N)(=O)=O)cc4)nc23)CC1 [Compound 925, 4-(8-((4-isopropylpiperazin-1-yl)methyl)quinazolin-2-ylamino)benzenesulfonamide]",–,–,–,–,< 5 µM,< 5 µM,5 to 10 µM

# More lines, now with the values ahead:
IC50 ([1]; PDK1 Kinase Alpha Screen Assay),EC50 [2],EC50 ([3]; cell proliferation),"EC50 [4, 5]",EC50 [3],IC50 [1],"EC50 ([4]; PC-3, PC3 cells)",Compound
< 5 µM,< 5 µM,–,–,–,–,–,"c1cc(N2CCOCC2)ccc1Nc1ncc2cc(-c3cn[nH]c3)c(OC3CCNCC3)cc2n1 [Compound 651, N-(4-morpholinophenyl)-7-(piperidin-4-yloxy)-6-(1H-pyrazol-4-yl)quinazolin-2-amine]"
< 5 µM,< 5 µM,–,–,–,–,–,"CN1CCC(Oc2cc3nc(Nc4ccc(N5CCOCC5)cc4)ncc3cc2-c2cn[nH]c2)CC1 [Compound 654, 7-(1-methylpiperidin-4-yloxy)-N-(4-morpholinophenyl)-6-(1H-pyrazol-4-yl)quinazolin-2-amine]"
< 5 µM,< 5 µM,–,–,–,–,–,"CN1CCC(Oc2ccc3cnc(Nc4ccc(N5CCOCC5)cc4)nc3c2)CC1 [Compound 655, 7-(1-methylpiperidin-4-yloxy)-N-(4-morpholinophenyl)quinazolin-2-amine]"
< 5 µM,< 5 µM,–,–,–,–,–,"COC(=O)Nc1cc(CN2CCOCC2)cc(Nc2ncc3cccc(OC4CCNCC4)c3n2)c1 [Compound 656, methyl 3-(morpholinomethyl)-5-(8-(piperidin-4-yloxy)quinazolin-2-ylamino)phenylcarbamate]"
< 5 µM,< 5 µM,–,–,–,–,–,"C#Cc1cc(OC2CCNCC2)c2nc(Nc3cc(NC(C)=O)cc(-c4cncnc4)c3)ncc2c1 [Compound 657, N-(3-(6-ethynyl-8-(piperidin-4-yloxy)quinazolin-2-ylamino)-5-(pyrimidin-5-yl)phenyl)acetamide]"
< 5 µM,5 to 10 µM,–,–,–,–,–,"CC(=O)Nc1cc(NC(C)=O)cc(Nc2ncc3ccc(OC4CCNCC4)cc3n2)c1 [Compound 658, N,N′-(5-(7-(piperidin-4-yloxy)quinazolin-2-ylamino)-1,3-phenylene)diacetamide]"
< 5 µM,–,< 5 µM,< 5 µM,–,–,–,"CN1CCC(Oc2ccc3cnc(Nc4ccc(S(=O)(=O)N5CCOCC5)cc4)nc3c2)CC1 [Compound 869, 7-(1-methylpiperidin-4-yloxy)-N-(4-(morpholinosulfonyl)phenyl)quinazolin-2-amine]"
< 5 µM,–,< 5 µM,< 5 µM,–,–,–,"NS(=O)(=O)c1ccc(Nc2ncc3cc(F)cc(-c4ccc5c(c4)CCNC5=O)c3n2)cc1 [Compound 884, 4-(6-fluoro-8-(1-oxo-1,2,3,4-tetrahydroisoquinolin-6-yl)quinazolin-2-ylamino)benzenesulfonamide]"
< 5 µM,–,< 5 µM,< 5 µM,–,–,–,"Nc1ccc(-c2cc(F)cc3cnc(Nc4ccc(S(N)(=O)=O)cc4)nc23)cn1 [Compound 885, 4-(8-(6-aminopyridin-3-yl)-6-fluoroquinazolin-2-ylamino)benzenesulfonamide]"
< 5 µM,–,< 5 µM,< 5 µM,–,–,–,"CN1CCN(c2ccc(-c3cc(F)cc4cnc(Nc5ccc(S(N)(=O)=O)cc5)nc34)cn2)CC1 [Compound 888, 4-(6-fluoro-8-(6-(4-methylpiperazin-1-yl)pyridin-3-yl)quinazolin-2-ylamino)benzenesulfonamide]"
< 5 µM,–,< 5 µM,< 5 µM,–,–,–,"NS(=O)(=O)c1ccc(Nc2ncc3cc(F)cc(-c4ccc(NCCN5CCCC5)nc4)c3n2)cc1 [Compound 892, 4-(6-fluoro-8-(6-(2-(pyrroidin-1-yl)ethylamino)pyridin-3-yl)quinazolin-2-ylamino)benzenesulfonamide]"
< 5 µM,–,< 5 µM,< 5 µM,–,–,–,"COCCNc1ccc(-c2cc(F)cc3cnc(Nc4ccc(S(N)(=O)=O)cc4)nc23)cn1 [Compound 893, 4-(6-fluoro-8-(6-(2-methoxyethylamino)pyridin-3-yl)quinazolin-2-ylamino)benzenesulfonamide]"
< 5 µM,–,< 5 µM,< 5 µM,–,–,–,"NS(=O)(=O)c1ccc(Nc2ncc3cc(F)cc(-c4ccc(N5CCOCC5)nc4)c3n2)cc1 [Compound 894, 4-(6-fluoro-8-(6-morpholinopyridin-3-yl)quinazolin-2-ylamino)benzenesulfonamide]"
